Experimental data as given in US7968577B2 (Bristol-Myers Squibb Company, priority 2006, dated 2011).

Tested on: AP-1 induced transcriptional activity
Test: Cellular Transrepressional Assay: AP-1 luciferase reporter in PMA-activated A549 cells
Assay type: cell-based
Details: Homo sapiens; for Emax: A549, 7 h, maximum inhibition, Cellular Transrepression Assay, read-out: AP-1 Max % inh (Cellular Transrepression Assay); for EC50: A549, Cellular Transrepression Assay
Protocol: Cellular Transrepressional Assay
To measure the ability of test molecules to inhibit AP-1 induced transcriptional activity we utilized an A549 cell which was stably transfected with a plasmid containing 7× AP-1 DNA binding sites (pAP-1-Luc plasmid, Stratagene Co. La Jolla, Calif.) followed by the gene for luciferase. Cells were activated with 10 ng/ml of […] (PMA) plus or minus test molecules for 7 hours. After 7 hours a luciferase reagent was added to measure luciferase enzymatic activity in the cell. After a 10 minute incubation of luciferase reagent with cells, luminescence was measured in a TopCount luminescence counter. Repression of AP-1 activity was calculated as the percentage decrease in the signal induced by PMA alone. Test molecules were analyzed in the concentration range from 0.1 nM to 40 μM. EC50s were determined by using standard curve fitting methods such as Excel fit (Microsoft Co.).

CC(C)(C(=O)Nc1nccs1)C(c1ccccc1)c1ccc(O)cc1 (stereo not shown) [Example 209, 3-(4-hydroxyphenyl)-2,2-dimethyl-3-phenyl-N-1,3-thiazol-2-ylpropanamide] gave an Emax of 46.9% and an EC50 of 86.5 nM.

CC(C)(C(=O)Nc1nncs1)C(c1ccc(N2CCOCC2)cc1)c1cccc(F)c1 (stereo not shown) [Example 229, 3-(3-fluorophenyl)-2,2-dimethyl-3-(4-(4-morpholinyl)phenyl)-N-1,3,4-thiadiazol-2-ylpropanamide] gave an Emax of 44.2% and an EC50 of 18.6 nM.

With COc1cccc(C(c2ccccc2)C(C)(C)C(=O)Nc2nc(C)c(C)s2)c1 (stereo not shown) [Example 94, N-(4,5-dimethyl-1,3-thiazol-2-yl)-2,2-dimethyl-3-(3-(methyloxy)phenyl)-3-phenylpropanamide] the Emax was 35.4%.

Work on CCOC(=O)c1sc(NC(=O)C(C)(C)C(c2ccc(O)cc2)c2ccc(O)cc2)nc1C [Example 194, ethyl 2-((3,3-bis(4-hydroxyphenyl)-2,2-dimethylpropanoyl)amino)-4-methyl-1,3-thiazole-5-carboxylate] yielded an Emax of 25.4%.

COc1ccc(-c2ccc(C(c3ccccc3)C(C)(C)C(=O)Nc3nccs3)cc2)cc1 (stereo not shown) [Example 374, 2,2-Dimethyl-3-(4′-(methyloxy)-4-biphenylyl)-3-phenyl-N-1,3-thiazol-2-ylpropanamide] was tested, and the Emax was 39.7% and the EC50 was 121 nM.

CCCCOc1ccc(-c2ccc(C(CC(C)C)C(C)(C)C(=O)Nc3nncs3)cc2)cc1 (stereo not shown) [Example 442, 3-(4′-butoxy-4-biphenylyl)-2,2,5-trimethyl-N-1,3,4-thiadiazol-2-ylhexanamide] gave an Emax of 22.7% and an EC50 of 11.7 nM.

Compound CC(=O)c1ccc(-c2ccc(C(c3ccccc3)C(C)(C)C(=O)Nc3nncs3)cc2)cc1 (stereo not shown) [Example 406, 3-(4′-acetyl-4-biphenylyl)-2,2-dimethyl-3-phenyl-N-1,3,4-thiadiazol-2-ylpropanamide] has an Emax of 29.4% and an EC50 of 39 nM.

With CC(C)(C(=O)Nc1nc(-c2cccc3ccccc23)cs1)C(c1ccccc1)c1ccc(O)cc1 (stereo not shown) [Example 217, 3-(4-hydroxyphenyl)-2,2-dimethyl-N-(4-(1-naphthalenyl)-1,3-thiazol-2-yl)-3-phenylpropanamide] the Emax was 35% and the EC50 was 516 nM.

Compound CC(C)(C(=O)Nc1nc(Cc2ccc(-c3ccncc3)cc2)cs1)C(c1ccccc1)c1cccc(O)c1 (stereo not shown) [Example 357] has an Emax of 73.7% and an EC50 of 144 nM.

With CC(C)(C(=O)Nc1nccs1)[C@H](c1ccccc1)c1ccc(N2CCOCC2)cc1 (stereo in doubt) [Example 258, 2,2-dimethyl-3-(4-(4-morpholinyl)phenyl)-3-phenyl-N-1,3-thiazol-2-ylpropanamide] the Emax was 42.7% and the EC50 was 10.5 nM.

Work on CC(=O)c1ccc(C(c2ccccc2)C(C)(C)C(=O)Nc2nncs2)cc1 (stereo not shown) [Example 369, 3-(4-acetylphenyl)-2,2-dimethyl-3-phenyl-N-1,3,4-thiadiazol-2-ylpropanamide] yielded an Emax of 34.9% and an EC50 of 819 nM.

Work on CC(C)(C(=O)Nc1nncs1)C(c1ccccc1)c1ccc(-c2ccc(Cl)cc2)cc1 (stereo not shown) [Example 403, 3-(4′-chloro-4-biphenylyl)-2,2-dimethyl-3-phenyl-N-1,3,4-thiadiazol-2-ylpropanamide] yielded an Emax of 24.9% and an EC50 of 3.03 nM.

CCOC(=O)c1csc(NC(=O)C(C)(C)[C@H](c2ccccc2)c2ccc(OC)cc2)n1 [Example 264, ethyl 2-((2,2-dimethyl-3-(4-(methyloxy)phenyl)-3-phenylpropanoyl)amino)-1,3-thiazole-4-carboxylate] showed an Emax of 58.6% and an EC50 of 772 nM.

With CC(C)(C(=O)Nc1nc(-c2ccc(F)cc2)cs1)C(c1ccccc1)c1ccccc1 [Example 168, N-(4-(4-fluorophenyl)-1,3-thiazol-2-yl)-2,2-dimethyl-3,3-diphenylpropanamide] the Emax was 23%.

Compound CC(C)(C(=O)Nc1nccs1)[C@@H](c1ccccc1)c1ccc(OC(=O)c2ccco2)cc1 [Example 362, 4-((1S)-2,2-dimethyl-3-oxo-1-phenyl-3-(1,3-thiazol-2-ylamino)propyl)phenyl 2-furancarboxylate] has an Emax of 33.4% and an EC50 of 16.6 nM.

CCOC(=O)c1sc(NC(=O)C(C)(C)C(c2ccccc2)c2ccc(OC)cc2)nc1C (stereo not shown) [Example 112, ethyl 2-((2,2-dimethyl-3-(4-(methyloxy)phenyl)-3-phenylpropanoyl)amino)-4-methyl-1,3-thiazole-5-carboxylate] was tested, and the Emax was 20.9%.

In the case of CC(C)(C(=O)Nc1nccs1)[C@@H](c1ccccc1)c1ccc(OC(=O)c2ccoc2)cc1 [Example 364, 4-((1S)-2,2-dimethyl-3-oxo-1-phenyl-3-(1,3-thiazol-2-ylamino)propyl)phenyl 3-furancarboxylate], the Emax is reported as 39.1% and the EC50 is reported as 184 nM.

In the case of CC(C)(c1ccccc1)c1csc(NC(=O)C(C)(C)C(c2ccccc2)c2ccccc2)n1 [Example 181, 2,2-dimethyl-N-(4-(1-methyl-1-phenylethyl)-1,3-thiazol-2-yl)-3,3-diphenylpropanamide], the Emax is reported as 28.9%.

Compound CC(C)(C(=O)Nc1nncs1)[C@@H](c1ccccc1)c1ccc(O)cc1 [Example 339, (3S)-3-(4-hydroxyphenyl)-2,2-dimethyl-3-phenyl-N-1,3,4-thiadiazol-2-ylpropanamide] has an Emax of 60.8% and an EC50 of 30.5 nM.

CC(C)c1ccc(-c2ccc(C(c3ccccc3)C(C)(C)C(=O)Nc3nncs3)cc2)cc1 (stereo not shown) [Example 422, 3-(4′-isopropyl-4-biphenylyl)-2,2-dimethyl-3-phenyl-N-1,3,4-thiadiazol-2-ylpropanamide] gave an Emax of 33.7% and an EC50 of 2.7 nM.

In the case of CC(C)(C(=O)Nc1nc(Cc2ccc(-c3ccncc3)cc2)cs1)C(c1ccccc1)c1ccc(O)cc1 (stereo not shown) [Example 353, 3-(4-hydroxyphenyl)-2,2-dimethyl-3-phenyl-N-(4-((4-(4-pyridinyl)phenyl)methyl)-1,3-thiazol-2-yl)propanamide], the Emax is reported as 77.8% and the EC50 is reported as 100 nM.

With CC(C)(C(=O)Nc1nc(Cc2ccc(-c3ccncc3)cc2)cs1)C(c1ccccc1)c1ccc(F)cc1 (stereo not shown) [Example 302, 3-(4-fluorophenyl)-2,2-dimethyl-3-phenyl-N-(4-((4-(4-pyridinyl)phenyl)methyl)-1,3-thiazol-2-yl)propanamide] the Emax was 76.8% and the EC50 was 33.3 nM.

Cc1csc(NC(=O)C(C)(C)C(c2ccccc2)c2cccc(O)c2)n1 (stereo not shown) [Example 198, 3-(3-hydroxyphenyl)-2,2-dimethyl-N-(4-methyl-1,3-thiazol-2-yl)-3-phenylpropanamide] gave an Emax of 25.8%.

CC(C)(C(=O)Nc1nccs1)C(c1ccccc1)c1cccc(O)c1 (stereo not shown) [Example 197, 3-(3-hydroxyphenyl)-2,2-dimethyl-3-phenyl-N-1,3-thiazol-2-ylpropanamide] gave an Emax of 36.3%.

COc1ccc([C@@H](c2ccccc2)C(C)(C)C(=O)Nc2nncs2)cc1 [Example 276, (3R)-2,2-dimethyl-3-(4-(methyloxy)phenyl)-3-phenyl-N-1,3,4-thiadiazol-2-ylpropanamide] showed an Emax of 34% and an EC50 of 190 nM.

With CC(C)(C(=O)Nc1nccs1)[C@@H](c1ccccc1)c1ccc(O)c(Br)c1 [Example 350, (3S)-3-(3-bromo-4-hydroxyphenyl)-2,2-dimethyl-3-phenyl-N-1,3-thiazol-2-ylpropanamide] the Emax was 81.8% and the EC50 was 15 nM.

With COc1cccc(C(c2ccccc2)C(C)(C)C(=O)Nc2nc(C(C)(C)C)cs2)c1 (stereo not shown) [Example 96, N-(4-(1,1-dimethylethyl)-1,3-thiazol-2-yl)-2,2-dimethyl-3-(3-(methyloxy)phenyl)-3-phenylpropanamide] the Emax was 37.1%.
